The record followed here is US20080004272A1, “Compositions and methods for modulating gated ion channels” (PainCeptor Pharma Corporation, priority 2006, published 2008).

Experiment [1] deals with T1, ASIC1a (Homo sapiens, UniProt P78348).
T1 sequence (P78348 1-528): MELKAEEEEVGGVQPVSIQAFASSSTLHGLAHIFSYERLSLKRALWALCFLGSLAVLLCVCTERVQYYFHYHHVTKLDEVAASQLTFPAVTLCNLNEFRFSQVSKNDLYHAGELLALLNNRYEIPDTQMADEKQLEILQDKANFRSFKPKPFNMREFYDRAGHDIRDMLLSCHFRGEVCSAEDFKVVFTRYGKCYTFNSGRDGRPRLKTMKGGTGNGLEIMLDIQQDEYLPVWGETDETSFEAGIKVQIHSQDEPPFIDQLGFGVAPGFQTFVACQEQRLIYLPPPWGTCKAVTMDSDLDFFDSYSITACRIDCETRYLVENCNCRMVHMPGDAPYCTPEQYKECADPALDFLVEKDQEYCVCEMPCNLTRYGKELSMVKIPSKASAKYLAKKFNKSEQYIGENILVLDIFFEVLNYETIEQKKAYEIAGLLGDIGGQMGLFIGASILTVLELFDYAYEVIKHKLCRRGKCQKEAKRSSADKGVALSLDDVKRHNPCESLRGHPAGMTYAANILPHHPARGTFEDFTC
In words: Calcium imaging of MES-induced calcium response (FLIPR). It is filed as cell-based. On the set-up: host or cells: HEK293. As to conditions: ASIC1a expressing HEK293 cells, MES-induced calcium response; read-out: IC50 (FLIPR). Here is the method: […] Confluency of cells should be 80-90% on day of plating. Cells are rinsed with 10 ml of PBS and cells are re-suspended by addition of culture medium and trituration with a 25 ml pipette.
The cells are seeded at a density of approximately 1×10^6 cells/ml (100 μl/well) in black-walled, clear bottom, 96-well plates pre-treated with 10 mg/l poly-D-lysin (75 μl/well for ≧30 min). Plated cells are allowed to proliferate for 24 h before loading with dye.
Fluo-4/AM (1 mg, Molecular Probes) is dissolved in 912 μl DMSO. The Fluo-4/AM stock solution (1 mM) is diluted with culture medium to a final concentration of 2 μM (loading solution).
The culture medium is aspirated from the wells, and 50 μl of the Fluo-4/AM loading solution is added to each well. The cells are incubated at 37° C. for 30 min.
Following the second wash, 100 μl modified Assay Buffer is added to each well and the fluorescence is measured in FLIPR™ or FlexStation™ (Molecular Devices, USA), or any other suitable equipment known to the skilled in the art.
Temperature: Room temperature (20-22° C.)
First addition: 50 μl test solution at a rate of 30 μl/sec and a starting height of […]
Second addition: 50 μl MES solution (20 mM, 5 mM final concentration) at a rate of 35 μl/sec and a starting height of 150 μl.
Reading intervals: pre-incubation−10 sec×7 and 3 sec×3 antagonist phase−3 sec×7 and 10 sec×12
Addition plates (compound test plate and MES plate) are placed on the right and left positions in the FLIPR tray, respectively. Cell plates are placed in the middle position and the ASIC1a program is effectuated. FLIPR will then take the appropriate measurements in accordance with the interval settings above. Fluorescence obtained after stimulation is corrected for the mean basal fluorescence (in modified Assay Buffer).
The MES-induced peak calcium response, in the presence of test substance, is expressed relatively to the MES response alone. Test substances that block the MES-induced calcium response are re-tested in triplicates.

In experiment [2] the target is T1, ASIC1a. In words: Two-electrode voltage clamp in Xenopus laevis oocytes (Xo), acid-induced currents. On the set-up: expressed in transfected cells; host or cells: Xenopus laevis oocytes (nuclear microinjection of expression vector such as pcDNA3). As to conditions: Xenopus oocytes; for inhibition at 50 µM: read-out: % inh. at 50 μM (Xo). It is filed as cell-based. On the procedure: Two-electrode voltage clamp electrophysiological assays in Xenopus laevis oocytes expressing gated ion channels are performed as follows:
Oocytes are surgically removed from adult Xenopus laevis and treated for 2 h at room temperature with 1 mg/ml type I collagenase (Sigma) in Barth's solution under mild agitation. Selected oocytes at stage IV-V are defolliculated manually before nuclear microinjection of 2.5-5 ng of a suitable expression vector, such as pcDNA3, comprising the nucleotide sequence encoding a gated ion channel subunit protein. In such an experiment, the oocytes express homomultimeric proton-gated ion channels on their surface. In an alternate experiment, one, two, three or more vectors comprising the coding sequences for distinct gated ion channel subunits are co-injected in the oocyte nuclei. In the latter case, oocytes express heteromultimeric proton-gated ion channels. For example, ASIC2a and/or ASIC3 subunits in pcDNA3 vector are co-injected at a 1:1 cDNA ratio. After 2-4 days of expression at 19° C. in Barth's solution containing […] gentamicin and 1.8 mM CaCl2, gated ion channels are activated by applying an acidic solution (pH<7) and currents are recorded in a two electrode voltage-clamp configuration, using an OC-725B amplifier (Warner Instruments). Currents are acquired and digitized at 500 Hz on an Apple Imac G3 computer with an A/D NB-MIO-16XL interface (National Instruments) and recorded traces are post-filtered at 100 Hz in Axograph (Axon Instruments) (Neher, E. and Sakmann, B. (1976) Nature 260:799-802). Once impaled with the microelectrodes, oocytes are continuously superfused at 10-12 ml/min with a modified Ringer's solution containing 97 mM NaCl, 2 mM KCl, 1.8 mM CaCl2, and 10 mM HEPES brought to pH 7.4 with NaOH (Control Ringer). Test Ringer solution is prepared by replacing HEPES with MES and adjusting the pH to the desired acidic value. Compounds of the present invention are prepared in both the Control and Test Ringer solutions and applied to oocytes at room temperature through a computer-controlled switching valve system. Osmolarity of all solutions is adjusted to 235 mOsm with choline chloride. Similarly, recordings can also be acquired in an automated multichannel oocytes system as the OpusExpress™ (Molecular Devices, Sunnyvale, USA).
FIGS. 1A and 2A illustrate the inhibitory effects of Compounds 203 and 206 on acid-induced activation of recombinant homomeric hASIC1a channels.

A value given as a limit tells only on which side of the number the result lay.

As for `CN1CCc2c(-c3ccccc3)cc3c(c2C1)NC(=O)/C3=C/c1cccc(O)c1` [Compound 85], the IC50 at ASIC1a [1] was over 70 µM. Further, the inhibition at 50 µM at ASIC1a [2] is under 25%.
The corresponding values for `CN1CCc2c(-c3ccccc3)cc3c(c2C1)NC(=O)/C3=C/c1ccccc1` [Compound 87] are over 70 µM and under 25%.
The corresponding values for `CCOC(=O)N1CCc2c(-c3ccccc3)ccc([N+](=O)[O-])c2C1` [Compound 161] are over 70 µM and 20 to 40%.
The corresponding values for `CN1CCc2c(-c3ccccc3)cc3[nH]c(=O)[nH]c3c2C1` [Compound 99] are over 70 µM and under 25%.
Regarding `CC(=O)Nc1c(C(=O)O)cc(-c2ccccc2)c2c1CN(C)CC2` [Compound 144], at ASIC1a [1], the IC50 was over 70 µM. On ASIC1a [2], the inhibition at 50 µM is under 25%.
In the same order, the values of `CN1CCc2c(-c3ccccc3)cc(C(N)=O)c(N)c2C1` [Compound 128] are over 70 µM and under 25%.
In the same order, the values of `CCOC(=O)N1CCc2c(-c3ccccc3)ccc(CN)c2C1` [Compound 120] are over 70 µM and under 25%.
On to `CN(C)/C=C1/C(=O)Nc2c1cc(-c1ccccc1)c1c2CN(C)CC1` [Compound 95], for which the IC50 at ASIC1a [1] was over 70 µM. For the same molecule, the inhibition at 50 µM at ASIC1a [2] was under 25%.
Turning to `CN1CCc2c(Br)ccc(NC(=O)CCl)c2C1` [Compound 146], the inhibition at 50 µM at ASIC1a [2] is under 25%.
The same measure, in the same setting: the value for `COc1ccc(F)cc1Oc1ccc([N+](=O)[O-])c2c[n+](C)ccc12` [Compound 11] was under 25%.
As to `COc1ccc(F)cc1-c1cc(C#N)c(N(S(C)(=O)=O)S(C)(=O)=O)c2c1CCN(C)C2` [Compound 196, N-[7-Cyano-5-(5-fluoro-2-methoxy-phenyl)-2-methyl-1,2,3,4-tetrahydro-isoquinolin-8-yl]-dimethanesulfonamide], the inhibition at 50 µM on ASIC1a [2] was under 25%.
On the same count and under the same terms, the value for `CN1CCc2c(-c3ccccc3)cc3[nH]c(=O)c(=O)[nH]c3c2C1` [Compound 100] was under 25%; that for `CN1CCc2c(-c3ccccc3)cc3c(c2C1)NC(=O)C3=NNC(=O)C(N)=O` [Compound 107] was 20 to 40%; that for `COCCOCN1C(=O)/C(=N/O)c2cc(-c3ccccc3)c3c(c21)CN(C)CC3` [Compound 66] was 20 to 40%.
Still for that read-out and setting: the figure for `COC(=O)CNc1ccc(-c2ccccc2)c2c1CN(C(=O)OC(C)(C)C)CC2` [Compound 167] is under 25%.
`COCCOCO/N=C1/C(=O)Nc2c1cc(-c1ccccc1)c1c2CN(C)CC1` [Compound 62]: the inhibition at 100 µM at ASIC1a [2] (100 μM, read-out: % inh. at 100 μM (Xo)) was over 50%.
For `CC(=O)Nc1c(C(N)=O)cc(-c2ccccc2)c2c1CN(C)CC2` [Compound 164], on ASIC1a [2], the inhibition at 50 µM was under 25%.
On the same count and under the same terms, the value for `CN1CCc2c(-c3ccccc3)cc(/C(N)=N/O)c(N)c2C1` [Compound 207] was over 50%; that for `CC(=O)NN=C1C(=O)Nc2c1cc(-c1ccccc1)c1c2CN(C)CC1` [Compound 112] was under 25%; that for `COc1ccc(F)cc1-c1cc(C#N)c(N2C(=O)CCC2=O)c2c1CCN(C)C2` [Compound 211] was under 25%.
On the same count and under the same terms, the value for `CN1CCc2c(-c3ccccc3)cc(C#N)c(Br)c2C1` [Compound 175] was under 25%; that for `CCN(CC)C(=O)c1cc(-c2cc(F)ccc2OC)cc(C)c1NC(=O)N1CCNC1=O` [Compound 192, 2-Oxo-imidazolidine-1-carboxylic acid (5-diethylcarbamoyl-5′-fluoro-2′-methoxy-3-methyl-biphenyl-4-yl)-amide] was under 25%; that for `COC(=O)c1ccccc1CO/N=C1/C(=O)Nc2c1cc(-c1ccccc1)c1c2CN(C)CC1` [Compound 65] was 20 to 40%.
Same read-out and setting: the value for `CCOC(=O)N1CCc2c(-c3ccccc3)ccc(CN(CC(=O)O)Cc3ccccc3)c2C1` [Compound 123] was under 25%; that for `CC(=O)OCCOCO/N=C1/C(=O)Nc2c1cc(-c1ccccc1)c1c2CN(C)CC1` [Compound 64] was under 25%.
On to `COC(=O)CN(C(C)=O)c1ccc(-c2ccccc2)c2c1CN(C)CC2` [Compound 169], for which the inhibition at 50 µM on ASIC1a [2] is under 25%.
Regarding `COc1ccc(F)cc1-c1cc(C#N)c(NC(C)=O)c2c1CCN(C)C2` [Compound 195, N-[7-Cyano-5-(5-fluoro-2-methoxy-phenyl)-2-methyl-1,2,3,4-tetrahydro-isoquinolin-8-yl]-acetamide], the inhibition at 50 µM at ASIC1a [2] fell in the range of 25 to 40%.
The same measure, in the same setting: the value for `CCOC(=O)CC(=O)NN=C1C(=O)Nc2c1cc(-c1ccccc1)c1c2CN(C)CC1` [Compound 110] was under 25%; that for `CC(C)(C)OC(=O)N1CCc2c(-c3ccccc3)ccc(N)c2C1` [Compound 168] was under 25%.
For the molecule `COc1ccc(F)cc1Oc1cc2c(c3c1CCN(C)C3)NC(=O)C2=O` [Compound 13], the inhibition at 50 µM on ASIC1a [2] is under 25%.
For the molecule `O=C(/C=N/O)Nc1ccc(-c2ccccc2)c2c1CNCC2` [Compound 171], the inhibition at 50 µM at ASIC1a [2] is under 25%.
On the same count and under the same terms, the figure for `CC(C)(C)OC(=O)N1CCc2c(-c3ccccc3)ccc(NCC(=O)Oc3ccccc3)c2C1` [Compound 170] is under 25%.
Same read-out and setting: the figure for `CCN(CC)C(=O)c1cc(-c2cc(F)ccc2OC)cc(C)c1N(C(=O)N1CCOCC1)C(=O)N1CCOCC1` [Compound 190, Morpholine-4-carboxylic acid (5-diethylcarbamoyl-5′-fluoro-2′-methoxy-3-methyl-biphenyl-4-yl)-(morpholine-4-carbonyl)-amide] is under 25%; for `COc1ccc(F)cc1-c1cc(C#N)c(N(C(C)=O)C(C)=O)c2c1CCN(C)C2` [Compound 194, N-Acetyl-N-[7-cyano-5-(5-fluoro-2-methoxy-phenyl)-2-methyl-1,2,3,4-tetrahydro-isoquinolin-8-yl]-acetamide] it is under 25%; for `COC(=O)CNc1ccc(-c2ccccc2)c2c1CN(C)CC2` [Compound 205, (2-Methyl-5-phenyl-1,2,3,4-tetrahydro-isoquinolin-8-ylamino)-acetic acid methyl ester] it is 20 to 40%.
